Like-named read-outs stand apart in the source and are kept apart here.
Columns and labels:
Format in all cases: cell-based, human
[1] = tested on: breast cancer MCF-7 cell line; test: In vitro anti-proliferative activity, MTT assay; conditions: MCF-7, MTT
Procedure, shortened: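 Growth inhibition was read colorimetrically by MTT, run in triplicate and averaged over at least three independent experiments. The cells were maintained in DMEM supplemented with 10 μg/mL insulin, 10% heat-inactivated FBS and 1% penicillin-streptomycin.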

LOX IMVI = test: NCI one-dose SRB assay (Melanoma); conditions: for Growth Percent: 1.00E-5 Molar
Procedure, shortened: (§1)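 Human cancer cells are exposed for 48 h to one dose (10^−5 M) of test compound, then cell growth is measured by SRB protein assay. Data appear as GI%.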

M14 = test: NCI one-dose SRB assay (Melanoma); conditions: for Growth Percent: M14, 1.00E-5 Molar
Procedure, shortened: as §1

MALME-3M = test: NCI one-dose SRB assay (Melanoma); conditions: for Growth Percent: 1.00E-5 Molar
Procedure, shortened: as §1

MDA-MB-435 = test: NCI one-dose SRB assay (Melanoma); conditions: for Growth Percent: MDA-MB-435, 1.00E-5 Molar
Procedure, shortened: as §1

SK-MEL-28 = test: NCI one-dose SRB assay (Melanoma); conditions: for Growth Percent: SK-MEL-28, 1.00E-5 Molar
Procedure, shortened: as §1

SK-MEL-2 = test: NCI one-dose SRB assay (Melanoma); conditions: for Growth Percent: SK-MEL-2, 1.00E-5 Molar
Procedure, shortened: as §1

SK-MEL-5 = test: NCI one-dose SRB assay (Melanoma); conditions: for Growth Percent: SK-MEL-5, 1.00E-5 Molar
Procedure, shortened: as §1

UACC-257 = test: NCI one-dose SRB assay (Melanoma); conditions: for Growth Percent: UACC-257, 1.00E-5 Molar
Procedure, shortened: as §1

UACC-62 = test: NCI one-dose SRB assay (Melanoma); conditions: for Growth Percent: UACC-62, 1.00E-5 Molar
Procedure, shortened: as §1

IGROV1 = test: NCI one-dose SRB assay (Ovarian Cancer); conditions: for Growth Percent: IGROV1, 1.00E-5 Molar
Procedure, shortened: as §1

NCI/ADR-RES = test: NCI one-dose SRB assay (Ovarian Cancer); conditions: for Growth Percent: 1.00E-5 Molar
Procedure, shortened: as §1

OVCAR-3 = test: NCI one-dose SRB assay (Ovarian Cancer); conditions: for Growth Percent: OVCAR-3, 1.00E-5 Molar
Procedure, shortened: as §1

OVCAR-4 = test: NCI one-dose SRB assay (Ovarian Cancer); conditions: for Growth Percent: OVCAR-4, 1.00E-5 Molar
Procedure, shortened: as §1

OVCAR-5 = test: NCI one-dose SRB assay (Ovarian Cancer); conditions: for Growth Percent: OVCAR-5, 1.00E-5 Molar
Procedure, shortened: as §1

OVCAR-8 = test: NCI one-dose SRB assay (Ovarian Cancer); conditions: for Growth Percent: OVCAR-8, 1.00E-5 Molar
Procedure, shortened: as §1

SK-OV-3 = test: NCI one-dose SRB assay (Ovarian Cancer); conditions: for Growth Percent: SK-OV-3, 1.00E-5 Molar
Procedure, shortened: as §1

BT-549 = test: NCI one-dose SRB assay (Breast Cancer); conditions: for Growth Percent: BT-549, 1.00E-5 Molar
Procedure, shortened: as §1

HS 578T = test: NCI one-dose SRB assay (Breast Cancer); conditions: for Growth Percent: 1.00E-5 Molar
Procedure, shortened: as §1

MCF7 = test: NCI one-dose SRB assay (Breast Cancer); conditions: for Growth Percent: MCF7, 1.00E-5 Molar
Procedure, shortened: as §1

MDA-MB-231 = test: NCI one-dose SRB assay (Breast Cancer); conditions: for Growth Percent: MDA-MB-231/ATCC, 1.00E-5 Molar
Procedure, shortened: as §1

MDA-MB-468 = test: NCI one-dose SRB assay (Breast Cancer); conditions: for Growth Percent: MDA-MB-468, 1.00E-5 Molar
Procedure, shortened: as §1

T-47D = test: NCI one-dose SRB assay (Breast Cancer); conditions: for Growth Percent: 1.00E-5 Molar
Procedure, shortened: as §1

[2] = Homo sapiens, 10 μM, read-out: Percentage growth inhibition (GI%)

In the case of `COc1ccc(NC(=O)Nc2ccc(-c3ccc(OC)c(OC)c3)nc2C)cc1` [Compound 8n, 1-(6-(3,4-Dimethoxyphenyl)-2-methylpyridin-3-yl)-3-(4-methoxyphenyl) Urea], the IC50 ([1]; Homo sapiens, MCF7, 48 h, 48 h of incubation, read-out: IC50 48 h) is reported as 1.88 ± 0.12 µM, the IC50 ([1]; Homo sapiens, MCF7, 72 h, 72 h of incubation, read-out: IC50 72 h) is reported as 0.8 ± 0.07 µM and the “Growth Percent” value (LOX IMVI) is reported as 88.83%. The inhibition at 10 µM (LOX IMVI; [2]) was 12%, the inhibition at 10 µM (M14; Homo sapiens, M14, 10 μM, read-out: Percentage growth inhibition (GI%)) was 28% and the “Growth Percent” value (M14) was 72.14%. The “Growth Percent” value (MALME-3M) was 44.12%, the inhibition at 10 µM (MALME-3M; [2]) was 56% and the inhibition at 10 µM (MDA-MB-435; Homo sapiens, MDA-MB-435, 10 μM, read-out: Percentage growth inhibition (GI%)) was 35%. For the same molecule, the “Growth Percent” value (MDA-MB-435) was 65.17%, the inhibition at 10 µM (SK-MEL-28; Homo sapiens, SK-MEL-28, 10 μM, read-out: Percentage growth inhibition (GI%)) was 14% and the “Growth Percent” value (SK-MEL-28) was 86.76%. The inhibition at 10 µM (SK-MEL-2; Homo sapiens, SK-MEL-2, 10 μM, read-out: Percentage growth inhibition (GI%)) was 21%, the “Growth Percent” value (SK-MEL-2) was 79.55% and the inhibition at 10 µM (SK-MEL-5; Homo sapiens, SK-MEL-5, 10 μM, read-out: Percentage growth inhibition (GI%)) was 78%. The “Growth Percent” value (SK-MEL-5) was 22.98%, the inhibition at 10 µM (UACC-257; Homo sapiens, UACC-257, 10 μM, read-out: Percentage growth inhibition (GI%)) was 45% and the “Growth Percent” value (UACC-257) was 55.47%. The inhibition at 10 µM (UACC-62; Homo sapiens, UACC-62, 10 μM, read-out: Percentage growth inhibition (GI%)) was 41%, the “Growth Percent” value (UACC-62) was 59.87% and the inhibition at 10 µM (IGROV1; Homo sapiens, IGROV-1, IGROV1, 10 μM, read-out: Percentage growth inhibition (GI%)) was 23%. For the same molecule, the “Growth Percent” value (IGROV1) was 77.14%, the “Growth Percent” value (NCI/ADR-RES) was 84.96% and the inhibition at 10 µM (NCI/ADR-RES; [2]) was 16%. The inhibition at 10 µM (OVCAR-3; Homo sapiens, OVCAR-3, 10 μM, read-out: Percentage growth inhibition (GI%)) was under 10%, the “Growth Percent” value (OVCAR-3) was 102.08% and the inhibition at 10 µM (OVCAR-4; Homo sapiens, OVCAR-4, 10 μM, read-out: Percentage growth inhibition (GI%)) was 71%. The “Growth Percent” value (OVCAR-4) was 29.55%, the inhibition at 10 µM (OVCAR-5; Homo sapiens, OVCAR-5, 10 μM, read-out: Percentage growth inhibition (GI%)) was under 10% and the “Growth Percent” value (OVCAR-5) was 98.04%. The inhibition at 10 µM (OVCAR-8; Homo sapiens, OVCAR-8, 10 μM, read-out: Percentage growth inhibition (GI%)) was 53%, the “Growth Percent” value (OVCAR-8) was 47.38% and the inhibition at 10 µM (SK-OV-3; Homo sapiens, SK-OV-3, 10 μM, read-out: Percentage growth inhibition (GI%)) was 26%. The “Growth Percent” value (SK-OV-3) was 74.76%, the “Growth Percent” value (BT-549) was 50.44% and the inhibition at 10 µM (BT-549; Homo sapiens, BT-549, 10 μM, read-out: Percentage growth inhibition (GI%)) was 50%. For the same molecule, the “Growth Percent” value (HS 578T) was 39.96%, the inhibition at 10 µM (HS 578T; [2]) was 61% and the inhibition at 10 µM (MCF7; Homo sapiens, MCF7, 10 μM, read-out: Percentage growth inhibition (GI%)) was 35%. The “Growth Percent” value (MCF7) was 65.14%, the inhibition at 10 µM (MDA-MB-231; Homo sapiens, MDA-MB-231, 10 μM, read-out: Percentage growth inhibition (GI%)) was 60% and the “Growth Percent” value (MDA-MB-231) was 40.48%. For the same molecule, the inhibition at 10 µM (MDA-MB-468; Homo sapiens, MDA-MB-468, 10 μM, read-out: Percentage growth inhibition (GI%)) was 17%, the “Growth Percent” value (MDA-MB-468) was 83.00% and the “Growth Percent” value (T-47D) was 60.36%. The inhibition at 10 µM (T-47D; Homo sapiens, T47D, 10 μM, read-out: Percentage growth inhibition (GI%)) was 40%.
In the case of “1-(4-Chloro-4-(trifluoromethyl)cyclohexa-2,5-dien-1-yl)-3-(6-(3,4-dimethoxyphenyl)-2-methylpyridin-3-yl)urea [Compound 8l]”, the IC50 ([1]; 48 h of incubation, read-out: IC50 48 h) is reported as 7.03 ± 0.61 µM, the IC50 ([1]; 72 h of incubation, read-out: IC50 72 h) is reported as 21.4 ± 2.03 µM and the “Percentage growth inhibition (GI%)” value (LOX IMVI; 10 μM) is reported as 22%. The “Growth Percent” value (LOX IMVI) was 78.57%, the “Percentage growth inhibition (GI%)” value (M14; M14, 10 μM) was 53% and the “Growth Percent” value (M14) was 47.02%. The “Percentage growth inhibition (GI%)” value (MALME-3M; 10 μM) was 10%, the “Growth Percent” value (MALME-3M) was 90.89% and the “Percentage growth inhibition (GI%)” value (MDA-MB-435; MDA-MB-435, 10 μM) was 23%. For the same molecule, the “Growth Percent” value (MDA-MB-435) was 77.84%, the “Percentage growth inhibition (GI%)” value (SK-MEL-28; SK-MEL-28, 10 μM) was 27% and the “Growth Percent” value (SK-MEL-28) was 73.58%. The “Percentage growth inhibition (GI%)” value (SK-MEL-2; SK-MEL-2, 10 μM) was 13%, the “Growth Percent” value (SK-MEL-2) was 87.87% and the “Percentage growth inhibition (GI%)” value (SK-MEL-5; SK-MEL-5, 10 μM) was 37%. For the same molecule, the “Growth Percent” value (SK-MEL-5) was 63.85%, the “Percentage growth inhibition (GI%)” value (UACC-257; UACC-257, 10 μM) was 44% and the “Growth Percent” value (UACC-257) was 56.26%. For the same molecule, the “Percentage growth inhibition (GI%)” value (UACC-62; UACC-62, 10 μM) was 23%, the “Growth Percent” value (UACC-62) was 77.31% and the “Percentage growth inhibition (GI%)” value (IGROV1; IGROV1, 10 μM) was 17%. The “Growth Percent” value (IGROV1) was 83.06%, the “Percentage growth inhibition (GI%)” value (NCI/ADR-RES; 10 μM) was 31% and the “Growth Percent” value (NCI/ADR-RES) was 69.67%. The “Percentage growth inhibition (GI%)” value (OVCAR-3; OVCAR-3, 10 μM) was 43%, the “Growth Percent” value (OVCAR-3) was 57.00% and the “Percentage growth inhibition (GI%)” value (OVCAR-4; OVCAR-4, 10 μM) was 25%. The “Growth Percent” value (OVCAR-4) was 75.13%, the “Percentage growth inhibition (GI%)” value (OVCAR-5; OVCAR-5, 10 μM) was 15% and the “Growth Percent” value (OVCAR-5) was 85.15%. The “Percentage growth inhibition (GI%)” value (OVCAR-8; OVCAR-8, 10 μM) was 19%, the “Growth Percent” value (OVCAR-8) was 81.32% and the “Percentage growth inhibition (GI%)” value (SK-OV-3; SK-OV-3, 10 μM) was 16%. For the same molecule, the “Growth Percent” value (SK-OV-3) was 84.22%, the “Percentage growth inhibition (GI%)” value (BT-549; BT-549, 10 μM) was 12% and the “Growth Percent” value (BT-549) was 88.97%. The “Percentage growth inhibition (GI%)” value (HS 578T; 10 μM) was 19%, the “Growth Percent” value (HS 578T) was 81.01% and the “Percentage growth inhibition (GI%)” value (MCF7; MCF7, 10 μM) was 42%. For the same molecule, the “Growth Percent” value (MCF7) was 58.28%, the “Percentage growth inhibition (GI%)” value (MDA-MB-231; MDA-MB-231, 10 μM) was 12% and the “Growth Percent” value (MDA-MB-231) was 88.41%. For the same molecule, the “Percentage growth inhibition (GI%)” value (MDA-MB-468; MDA-MB-468, 10 μM) was 52%, the “Growth Percent” value (MDA-MB-468) was 48.57% and the “Percentage growth inhibition (GI%)” value (T-47D; 10 μM) was 51%. The “Growth Percent” value (T-47D) was 49.20%.

Reference: article PMC6100082, “Pyridine-Ureas as Potential Anticancer Agents: Synthesis and In Vitro Biological Evaluation” (Molecules : A Journal of Synthetic Chemistry and Natural …, 2018)
